From patent publication US11236083B2, “Compounds and pharmaceutical compositions for modulating SGK activity, and methods thereof” (NEW ERA PHARMA, INC., priority 2016, dated 2022)
pIC50: −log10 of the molar value.

target: T1, hERG channels (Homo sapiens, UniProt Q12809); assay: Qpatch hERG assay (automated patch clamp, whole-cell tail current); type: cell-based; details: CHO cell line stably expressing hERG channels; highest test concentration 30 μM
T1 construct: expressed in transfected cells
T1 sequence (Q12809 whole entry): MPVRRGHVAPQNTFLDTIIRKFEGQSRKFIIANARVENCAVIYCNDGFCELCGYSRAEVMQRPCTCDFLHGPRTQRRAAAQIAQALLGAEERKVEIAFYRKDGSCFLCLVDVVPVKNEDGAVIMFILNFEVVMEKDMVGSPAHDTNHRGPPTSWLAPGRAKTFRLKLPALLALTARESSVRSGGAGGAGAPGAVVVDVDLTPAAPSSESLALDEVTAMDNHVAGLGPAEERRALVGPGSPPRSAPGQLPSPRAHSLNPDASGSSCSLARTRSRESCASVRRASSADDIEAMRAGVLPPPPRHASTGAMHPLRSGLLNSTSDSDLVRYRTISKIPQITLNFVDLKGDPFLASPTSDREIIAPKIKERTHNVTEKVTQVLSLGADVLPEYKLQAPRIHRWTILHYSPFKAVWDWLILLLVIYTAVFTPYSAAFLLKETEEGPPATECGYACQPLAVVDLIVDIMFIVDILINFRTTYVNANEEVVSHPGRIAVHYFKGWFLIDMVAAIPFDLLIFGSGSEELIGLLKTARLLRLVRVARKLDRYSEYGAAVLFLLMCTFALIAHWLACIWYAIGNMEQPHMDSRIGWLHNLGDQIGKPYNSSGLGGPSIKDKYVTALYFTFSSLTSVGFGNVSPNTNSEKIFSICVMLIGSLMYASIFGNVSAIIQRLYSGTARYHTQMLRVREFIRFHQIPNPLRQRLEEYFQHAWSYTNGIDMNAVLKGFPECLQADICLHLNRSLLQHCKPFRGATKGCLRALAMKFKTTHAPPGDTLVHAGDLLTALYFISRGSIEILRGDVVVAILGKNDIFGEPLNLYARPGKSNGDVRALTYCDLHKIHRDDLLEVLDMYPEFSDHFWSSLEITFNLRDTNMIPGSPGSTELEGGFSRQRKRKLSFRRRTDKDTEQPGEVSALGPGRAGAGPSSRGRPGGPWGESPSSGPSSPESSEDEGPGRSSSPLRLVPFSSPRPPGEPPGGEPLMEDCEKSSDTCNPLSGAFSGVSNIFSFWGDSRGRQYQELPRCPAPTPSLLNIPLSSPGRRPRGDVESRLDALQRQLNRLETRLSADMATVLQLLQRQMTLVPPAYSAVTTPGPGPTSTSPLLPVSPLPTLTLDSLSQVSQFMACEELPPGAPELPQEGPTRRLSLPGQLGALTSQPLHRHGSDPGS
Method: • Assay platform & method: Automated patch clamp (Qpatch-48) • Cell source: CHO cell line stably expressing hERG channels • Measured parameter: Whole-cell tail current of hERG channels • Test concentration: 6 concentrations (30, 10, 3, 1, 0.3, 0.1 μM)
Example: Qpatch hERG Assay

| Compound | pIC50 |
| --- | --- |
| COc1ccc(F)c(S(=O)(=O)Nc2ccc(-c3cc(OC)c4c(N)n[nH]c4c3)cc2)c1 [C, N-(4-(3-amino-4-methoxy-1H-indazol-6-yl)-phenyl)-2-fluoro-5-methoxybenzenesulfonamide] | < 4.52 |
| COc1ccc(F)c(S(=O)(=O)Nc2ccc(-c3ccc4c(N)n[nH]c4n3)cc2)c1 [J, N-(4-(3-amino-1H-pyrazolo[3,4-b]pyridin-6-yl)-phenyl)-2-fluoro-5-methoxybenzenesulfonamide] | < 4.52 |
| COc1ccc(F)c(S(=O)(=O)Nc2ccc(-c3cc(C)c4c(N)n[nH]c4n3)cc2)c1 [E, N-(4-(3-amino-4-methyl-1H-pyrazolo[3,4-b]-pyridin-6-yl)phenyl)-2-fluoro-5-methoxybenzenesulfonamide] | < 4.52 |
